The target in assay [1] is T1, acid ceramidase (AC) (Homo sapiens, UniProt Q13510).
T1 sequence (Q13510 143-395 limits assumed): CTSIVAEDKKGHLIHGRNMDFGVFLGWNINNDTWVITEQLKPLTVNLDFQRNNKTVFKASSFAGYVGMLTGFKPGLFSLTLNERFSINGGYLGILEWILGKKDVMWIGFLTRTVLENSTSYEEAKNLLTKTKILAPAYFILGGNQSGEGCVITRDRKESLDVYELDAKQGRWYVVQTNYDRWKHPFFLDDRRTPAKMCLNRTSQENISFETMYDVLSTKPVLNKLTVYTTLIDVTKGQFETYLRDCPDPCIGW
T1 sequence (Q13510 22-142 limits assumed): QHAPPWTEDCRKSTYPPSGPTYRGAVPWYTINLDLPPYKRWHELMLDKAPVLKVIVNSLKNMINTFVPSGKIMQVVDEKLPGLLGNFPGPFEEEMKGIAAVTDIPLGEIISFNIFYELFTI
Nature of the assay: AC activity in intact cells by UPLC-HRMS quantification of RBM5-019 and reacylated products. It is filed as cell-based. Set-up: expressed in transfected cells; host or cells: A375/+Dox (overexpressing AC). The conditions noted are these: A375/+Dox. The protocol: Cells were seeded at 5 × 10^5 cells/mL into 6 well plates (1 mL/well) and were allowed to adhere for 24 h. Medium was replaced with fresh medium containing RBM5-177, RBM5-019 or RBM2-37 (5 μM final concentration). After 30 min, medium was removed; cells were washed with 400 μL PBS and harvested with 400 μL Trypsin-EDTA and 600 μL of medium. NC recombinant enzyme, lysates from A375-AC overexpressing cells, MEF5 or microsomes from HeLa T-Rex ACER1-TET-ON and HeLa T-Rex ACER2-TET-ON cells stably overexpress ACER1 orACER2 respectively were incubated with RBM5-177 or RBM5-019 (10 μM final concentration) for 3 h in the corresponding ceramidase activity buffer. Cell pellets were resuspended with 100 μL of H2O and mixed with 750 μL of methanol: chloroform, 2:1. Samples were heated at 48°C overnight and next day, 75 μL of 1 M KOH in methanol were added, followed by 2 h incubation at 37°C. Afterwards, the saponification was neutralised with 75 μL of 1 M acetic acid and solvent was removed using a […] (Thermo Scientific). Sphingolipid extracts, fortified with internal standards (N-dodecanoylsphingosine, N-dodecanoylglucosylsphingosine, N-dodecanoylsphingosylphosphorylcoline and C17-sphinganine 0.2 nmol each) were solubilised in 150 μL of methanol. Samples were then centrifuged at 9,300 g for 3 min and 130 μL of the supernatant were injected to a Waters Aquity UPLC system connected to a Waters LCT Premier Orthogonal Accelerated Time of Flight Mass Spectrometer (Waters,Milford, MA, USA) operated in positive electrospray ionisation mode. Full scan spectra from 50 to 1500 Da were acquired and individual spectra were summed to produce data points each 0.2 s. Mass accuracy and reproducibility were maintained by using an independent reference spray by the LockSpray interference. The analytical column was a 100 mm x2.1 mm i.d., 1.7 μm C8 Acquity UPLC BEH (Waters). The two mobile phases were phase A: methanol/water/formic acid (74/25/1 v/v/v); phase B: methanol/formic acid (99/1 v/v), both also contained 5 mM ammonium formate. […]

Assay [2] deals with T2, alkaline ceramidases 1 (ACER1) (Homo sapiens, UniProt Q8TDN7).
T2 construct: expressed in transfected cells; host or cells: HeLa T-Rex ACER1-TET-ON, tetracycline-induced; microsomes
T2 sequence (Q8TDN7 1-264): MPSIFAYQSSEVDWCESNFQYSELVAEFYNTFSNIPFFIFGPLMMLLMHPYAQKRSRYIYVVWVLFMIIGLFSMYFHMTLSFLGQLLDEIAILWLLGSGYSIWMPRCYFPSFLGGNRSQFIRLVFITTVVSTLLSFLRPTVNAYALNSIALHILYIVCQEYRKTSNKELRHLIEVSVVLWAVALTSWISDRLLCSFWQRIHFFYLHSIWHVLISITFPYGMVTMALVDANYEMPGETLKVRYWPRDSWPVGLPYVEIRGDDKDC
The assay can be described thus: Hydrolysis of RBM5-177 by microsomes of ACER1 overexpressing cells, UPLC-HRMS. It is filed as biochemical. The conditions noted are these: microsomes from ACER1 overexpressing cells, RBM5-177 5 µM, 30 min. As for the experimental part:
Cell lysates obtained from HeLa T-Rex ACER1-TET-ON, HeLa T-Rex ACER2-TET-ON and MEF5 overexpressing ACER3 cells were transferred to ultracentrifuge tubes and were spun at 100000 g for 1 h at 4°C. Pellets were resuspended in a 0.25 M saccharose solution and protein concentration was determined as specified below.
Cells were seeded at 5 × 10^5 cells/mL into 6 well plates (1 mL/well) and were allowed to adhere for 24 h. Medium was replaced with fresh medium containing RBM5-177, RBM5-019 or RBM2-37 (5 µM final concentration). After 30 min, medium was removed; cells were washed with 400 µL PBS and harvested with 400 µL Trypsin-EDTA and 600 µL of medium. NC recombinant enzyme, lysates from A375-AC overexpressing cells, MEF5 or microsomes from HeLa T-Rex ACER1-TET-ON and HeLa T-Rex […] activity buffer. Cell pellets were resuspended with 100 µL of H2O and mixed with 750 µL of methanol: chloroform, 2:1. Samples were heated at 48°C overnight and next day, 75 µL of 1 M KOH in methanol were added, followed by 2 h incubation at 37°C. Afterwards, the saponification was neutralised with 75 µL of 1 M acetic acid and solvent was removed using a Speed Vac Savant SPD131 DDA (Thermo Scientific). […]

In the case of `CCCCCCCCCCCCC/C=C/[C@@H](O)[C@H](CO)NC(=O)CCl` [SOCLAC], the “effect on formation of RBM5-19 and transacylated products” value in assay [1] (SOCLAC 5 µM 1 h, RBM5-177 5 µM 4 h (Fig. 4B)) was “precluded the formation of both RBM5-19 and transacylated products”. The “effect on levels of RBM5-19 and reacylated products” value in assay [1] (SOCLAC 5 µM 1 h pre treatment, RBM5-177 5 µM 4 h (Fig. 6B)) was “dropped dramatically”.
For the compound `CCCCCCCC(=O)N[C@@H](C)[C@H](O)CCCCCCCCCCCCN=[N+]=[N-]` [RBM5-177, N-((2S,3R)-15-azido-3-hydroxypentadecan-2-yl)octanamide], in assay [2], the “RBM5-19 formation (hydrolysis as substrate)” value was “transformed into the free amine only by AC”.

For the origin of these results see EP3925949A1, “AZIDO COMPOUNDS AND METHOD FOR MONITORING ACID CERAMIDASE ACTIVITY IN INTACT CELLS USING THEM” (Consejo Superior de Investigaciones Científicas (CSIC), priority 2020, dated 2021).
